For series [1], the system named is DOX induced cardiotoxicity. As to the kind of experiment: Example 2: echocardiogram ejection fraction, Dox, HNG and DRZ alone or in combinations. In kind it is in vivo, mouse.
Protocol: In this second experiment, adult male mice were used. These mice received for 8 weeks IP injections of saline daily (control), Doxorubicin (DOX 3 mg/week IP for 8 injections), HNG 5 mg/day IP), Dexrazoxane (DRZ 60 mg/week IP at the same time as Doxorubicin) either alone or in combinations as shown in FIG. 5. All animals received 8 weeks of injections.
Series [2] has as its system Atrial Natriuretic Factor (ANF). As to the kind of experiment: Example 3: real-time PCR of ANF transcripts in left ventricular tissue. To be noted: for expression levels of ANF mRNA: heart, compared to control. On the technique in general: Quantitative PCR measures a nucleic acid by following its amplification.
The test system of series [3] is nuclear-gene-encoded mitochondrial gene expression. Nature of the series: Example 3: mitochondrial gene focused qRT-PCR array of mouse hearts.
The nature of series [4]: Example 1: DOX ± HNG in B16 cell transplanted mice study, body weight and survival. Conditions: for Body weight: B16 inoculated C57BL/6 male mice, DOX 5 mg/Kg weekly IP, HNG 5 mg/Kg daily IP.
Protocol: Mouse B16 melanoma cells were cultured in 75 cm^2 flasks and incubated at 37° C. in a humidified chamber with 5% CO2 to generate enough cells for inoculating 10,000 cells/mouse×40 mice. After 5-7 days culture, B16 cells were collected and cell viability determined using the Trypan Blue stain and the number of living cells were counted under microscope.
Treatment Schedule: 7 weeks old C57BL/6 male mouse, control without tumor inoculation (n=6) and four other groups (n=10 each group) received B16 tumor cells (10,000/mouse) injection under the skin in the right flank. One group was not treated; another group received HNG IP injection, 5 mg/Kg BM, daily×40 days (HNG); the third group received Doxorubicin (DOX), IP injection, 5 mg/Kg BW, weekly×6 injections; and the last group DOX+HNG (Table 5).
The mice in the DOX treated group would receive 6 weekly injections of DOX and daily injection of HNG until Day 40. Body weights and tumor cell injection site were checked 3 times per week. Echocardiogram was scheduled at day 26 and repeated at day 40. Twenty four hours after echocardiogram examination, animals were sacrificed; whole blood, plasma, epididymis, heart, lung, testis, liver, spleen, kidney, intestine, muscle, skin, and femur bone were collected. Sperm in the cauda epididymis were counted and COMET assay for DNA damage of sperm assessed. Whole blood was collected for CBC analysis and plasma saved for measurement of HNG level or other bio-parameters. Testes were fixed in Bouin's or formaldehyde for immunohistochemistry and TUNEL analyses.
Series [5] can be described thus: Example 3: outcome and general health (deaths, body weight, heart weight).
In series [6] the test system is cardiac fibrosis. As to the kind of experiment: Example 3: Masson's Trichrome quantification of fibrosis in hearts. Conditions: for cardiac fibrosis: compared to controls.
The subject of series [7] is Dox-induced cardiotoxicity mouse model. As to the kind of experiment: Example 3: M-mode echocardiography of cardiac function.
Series [8] concerns DOX-induced cardiotoxicity. Nature of the series: Example 1: heart weight and echocardiogram in DOX ± HNG treated mice. The class given is in vivo, mouse. As for the experimental part: The heart containing left and right ventricles were fixed with formalin for hematoxylin/eosin and trichrome staining and TUNEL to detect apoptotic cell. Heart sections were saved for immunohistochemistry. Pieces of left ventricle were fixed with gluteraldehyde for later mitochondria analysis by EM. Heart was snapped frozen and stored at −80 degrees (left and right atriums plus the rest of ventricles) for molecular studies (e.g. ANP/BNP).
Echocardiogram was performed on three mice from each group on day 32, and the rest of the mice on days 34 and 38. […] However when corrected for body weight, the heart: body weight ratio was not different among the groups (FIGS. 3A & 3B.)

Series [9] concerns cardiomyocytes. Nature of the series: Example 3: cardiomyocyte apoptosis by tropomyosin/TUNEL co-localization. Conditions: for cardiomyocytes apoptosis: ten weeks, compared to control.
Series [10] deals with uncoupling protein 2 (Ucp2). As to the kind of experiment: Example 3: Ucp2 protein by ProteinSimple (Wes) assay in ventricle lysates. In kind it is in vivo, mouse. As for the experimental part: Left ventricle samples from mice were sonicated in RIPA buffer (Sigma) supplemented with EDTA-free protease inhibitor cocktail tablets (Roche), and cell debris removed by centrifugation. The protein concentration was analyzed by Bio-Rad Protein Assay and measured by Beckman Du-640 Spectrophotometer.
Protein measurement for the uncoupling protein 2 (Ucp2) was performed using ventricle tissue lysates from control, Dox only, Dox+HNG, Dox+DRZ, and Dox+HNG+DRZ treated mice. Protein expression was quantified by Wes Separation Module with 25 Capillary Cartridges for 12-230 kDa (Wes®). Proteins (4 microgram/sample) were separated through a size-resolving matrix in capillaries, immobilized to the inner capillary wall, incubated with anti-Ucp2 rabbit monoclonal antibody (Cell Signaling) at concentration of 1 μg/ml and anti-rabbit secondary antibodies before detection using chemiluminescence. Signals reflected as the area under the curve of Ucp2 protein were generated automatically at the end of the run. The Ucp2 protein levels were quantified by a ratio of the area under the curve from each sample that was normalized by the corresponding area under the curve of the corresponding total protein.

The conditions of series [11]: mouse, in vivo.
For series [12] the following is noted: patients with cancer, cited from earlier work.
The conditions of series [13]: cited from earlier work.
The next series has as its system cells. To be noted: compared with HN; cited from earlier work.
For another series, the system named is membrane receptor. To be noted: cited from earlier work.
Another series has as its target BAX (Homo sapiens, UniProt Q07812). Conditions: cited from earlier work.
A further series deals with IGFBP-3 (Homo sapiens, UniProt P17936). Conditions: cited from earlier work.
Sequence of IGFBP-3 (P17936 28-291, species assumed): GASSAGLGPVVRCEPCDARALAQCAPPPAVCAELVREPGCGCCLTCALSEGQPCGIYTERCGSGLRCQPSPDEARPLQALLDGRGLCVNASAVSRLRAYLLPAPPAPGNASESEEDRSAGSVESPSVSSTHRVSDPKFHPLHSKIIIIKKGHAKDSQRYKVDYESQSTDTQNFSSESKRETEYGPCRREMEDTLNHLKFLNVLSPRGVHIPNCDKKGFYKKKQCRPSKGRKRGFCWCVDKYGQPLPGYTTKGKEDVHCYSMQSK
In series [14] the test system is cardiac fibrosis. Conditions: mouse, in vivo.
The subject of series [15] is cardiomyocytes. Conditions: mouse, in vivo.
The subject of series [16] is Dox-induced cardiotoxicity mouse model. Conditions: in vivo.
Series [17] has as its system Atrial Natriuretic Factor (ANF). Conditions: mouse, in vivo.
Where [18] appears, read: 84 genes examined, threshold of 1.1 fold.
Setting [19] is: positive up-regulation, negative down-regulation.
Where [20] appears, read: echocardiogram days 32-38, vs non-treated and HNG treated mice.

Entries after “also recorded” stand apart in the source; their conditions may differ. Where two headings read alike, the source gives them in different places. Ends that are not written are not given here. Bounds are passed on as bounds.

Sequence of BAX (Q07812 whole entry, species assumed): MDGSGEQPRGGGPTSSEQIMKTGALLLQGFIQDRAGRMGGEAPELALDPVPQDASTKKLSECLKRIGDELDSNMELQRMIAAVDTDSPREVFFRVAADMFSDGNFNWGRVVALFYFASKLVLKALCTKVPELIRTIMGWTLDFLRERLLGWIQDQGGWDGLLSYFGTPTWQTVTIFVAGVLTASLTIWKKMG

As for `COc1cccc2c1C(=O)c1c(O)c3c(c(O)c1C2=O)C[C@@](O)(C(=O)CO)C[C@@H]3O[C@H]1C[C@H](N)[C@H](O)[C@H](C)O1` [DOX, Doxorubicin], the “Ejection fraction (EF)” value in series [1] (adult male mice, DOX 3 mg/week IP for 8 injections, FIG. 6) is “highly significant decrease in EF”. Moreover, in series [2], the “expression levels of ANF mRNA” value is “significantly increased”. Moreover, in [3] (setting [18]), the “number of genes down-regulated as compared to control” value came out at 5 genes and the “number of genes up-regulated as compared to control” value amounted to 78 genes. In addition, in series [3] (84 genes examined, threshold of 2-fold), the “number of genes upregulated as compared to control” value came out at 12 genes. Further, in [3] (setting [19]), the “Bbc3 Dox-induced gene expression (Fold changes as compared to control)” value is recorded as 3.27 Fold changes, the “Bcl2 Dox-induced gene expression (Fold changes as compared to control)” value turned out to be 2.23 Fold changes, the “Cox18 Dox-induced gene expression (Fold changes as compared to control)” value is 2.01 Fold changes and the “NefI Dox-induced gene expression (Fold changes as compared to control)” value is on record as 3.07 Fold changes. Further, in series [3] (setting [19]), the “Sfn Dox-induced gene expression (Fold changes as compared to control)” value came to 2.55 Fold changes, the “Slc25a17 Dox-induced gene expression (Fold changes as compared to control)” value is given as 2.00 Fold changes, the “Slc25a20 Dox-induced gene expression (Fold changes as compared to control)” value is given as 2.53 Fold changes and the “Slc25a21 Dox-induced gene expression (Fold changes as compared to control)” value is on record as 2.35 Fold changes. Besides, in series [3] (setting [19]), the “Slc25a22 Dox-induced gene expression (Fold changes as compared to control)” value was 3.12 Fold changes, the “Slc25a23 Dox-induced gene expression (Fold changes as compared to control)” value was determined as 5.83 Fold changes, the “Ucp2 Dox-induced gene expression (Fold changes as compared to control)” value is listed as 2.03 Fold changes and the “Ucp3 Dox-induced gene expression (Fold changes as compared to control)” value came out at 2.73 Fold changes. Further, in series [3] (qRT-PCR, heart), the “Ucp2 and Ucp3 mRNA expression” value is “increased Ucp2 and Ucp3 mRNA expression”. Besides, the Body weight entry in [4] is recorded as “started to lose weight at about day 8 to 10; also recorded: significant loss in weight; also recorded: decreased weight”. Besides, the “Survival (mice survived / mice in group)” value in [4] (DOX halted after 4th injection, up to day 38-40) is on record as 4/10. In addition, the “Body weight loss, DOX vs DOX+HNG” value in series [4] (day 29, p<0.05) is recorded as “lost more weight than the mice treated with DOX+HNG; also recorded: losing significantly more weight”. Besides, in [5] (10 mice per group, 10 weeks), the “mice died before the termination of the experiment” value is listed as “three”. Moreover, the cardiac fibrosis entry in the series with cardiac fibrosis [6] is “significantly induced a cardiac fibrosis response”. For the same molecule, in [7] (9.5 weeks after treatment), the ejection fraction entry is reported as “significantly decreased”, the fractional shortening result is “significantly decreased”, the heart rate result was “significantly decreased” and the “left ventricle posterior wall thickening” value was “significantly decreased”. The “time after Dox treatment until Dox-induced cardiac dysfunction occurred” value in [7] (accumulative dose of 24 mg/kg body weight in mice) is recorded as at least 8 weeks. In addition, in series [8] (Example 1 mice at sacrifice), the Heart weight entry is “significantly lower than the non-treated and HNG treated mice; also recorded: smaller hearts than non-treated and HNG treated mice”. Further, in series [8] (setting [20]), the ejection fraction entry is on record as “decrease in ejection fraction; also recorded: lower ejection fraction” and the fractional ventricular shortening result is reported as “decrease; also recorded: lower fractional shortening”. For the same molecule, the cardiomyocytes apoptosis entry in the series with cardiomyocytes [9] is given as “significantly increased cardiomyocytes apoptosis”. Moreover, the Ucp2 protein expression entry in series [10] (compared to control) was “significantly decreased Ucp2 protein expression”. Also, the “body weight (BW) at the end of 10 weeks” value in series [11] is “significantly decreased body weight”. For the same molecule, the “incidence of congestive heart failure” value in series [12] (cumulative dose of 400 mg/m^2) was 3 to 5%. In series [12] (cumulative dose of 550 mg/m^2), the “incidence of congestive heart failure” value is listed as 7 to 26%.
As for `C[C@@H](CN1CC(=O)NC(=O)C1)N1CC(=O)NC(=O)C1` [DRZ, Dexrazoxane], in series [1] (DOX treated mice, HNG 5 mg/day IP, DRZ 60 mg/week IP), the “DOX-induced decrease in EF, effect of co-treatment” value is reported as “ameliorated”. The “Dox-increased ANF expression, effect of addition” value in series [2] (added to Dox-treated mice) is reported as “returned expression of ANF to control levels”. Also, the “expression levels of ANF mRNA” value in series [2] is reported as “did not significantly altered ANF transcripts”. For the same molecule, the “Dox-induced Ucp2 and Ucp3 mRNA expression, effect of co-treatment” value in [3] (qRT-PCR, Dox-treated mice) was “reversed Dox-induced Ucp2 and Ucp3 mRNA expression to control levels”. Moreover, the testicular toxicity result in series [13] (has been shown) is given as “induce testicular toxicity”. Also, the significant adverse events entry in series [13] (patients receiving high doses of anthracyclines) was “decreased granulocytes and platelets”. Besides, the “Dox-induced BW loss, effect of co-treatment” value in [5] (in Dox-treated mice) is “attenuated the Dox-induced BW loss”. For the same molecule, the cardiac fibrosis result in the series on cardiac fibrosis [6] was “no changes of fibrosis”. Besides, the “Dox-induced cardiac fibrosis, effect of co-treatment” value in the series with cardiac fibrosis [6] (in Dox-treated mice) was “did not reduce Dox-induced cardiac fibrosis”. The “Dox-induced cardiac dysfunction, protective effect” value in [7] (Dox-treated mice, summary) was “improved heart function impaired by Dox treatment”. Moreover, the “cardiac parameters (heart rate, LV posterior wall thickening, fractional shortening, ejection fraction)” value in [7] (without Dox, compared to controls across the treatment period) is given as “did not show any altered cardiac parameters”. For the same molecule, the “Dox-induced cardiomyocytes apoptosis, effect of co-treatment” value with cardiomyocytes [9] (Dox-treated mice, ten weeks after treatment) was “no markedly protective effect”. Moreover, the cardiomyocytes apoptosis entry in the series on cardiomyocytes [9] was “did not induce significant levels of cardiomyocytes apoptosis”. Moreover, the “Ucp2 protein suppressed by Dox, effect of co-treatment” value in [10] (Dox-treated mice) is reported as “significantly normalized Ucp2 protein suppressed by Dox to control levels”. In [11], the “body weight (BW) at the end of 10 weeks” value was “no significant adverse effect on body weight”.
“HN-C8A: HN mutant, Cys8 to Ala; MAPRGFSALLLLTSEIDLPVKRRA (SEQ ID NO: 33)”: in the series on cells, the “Cytoprotective Action” value is listed as “Not effective, prevents HN self-”. Moreover, in the series on membrane receptor, the “Characteristics: membrane receptor binding” value is “Loss of membrane receptor”.
Take “HN-C8P: HN mutant, Cys8 to Pro (MAPRGFSPLLLLTSEIDLPVKRRA; UniProt Q8IVG9 1-24, looked up, variant C8P)”: the “Cytoprotective Action” value in the series with cells is recorded as “Not effective, blocks intracellular”. The “Characteristics: BAX binding” value in the series with BAX is reported as “Loss of BAX binding”.
For the molecule “HN-F6A: HN mutant, Phe6 to Ala (MAPRGASCLLLLTSEIDLPVKRRA; UniProt Q8IVG9 1-24, looked up, variant F6A)”, in the series on cells, the “Cytoprotective Action” value is “Similar/more effective than HN”. Besides, the “Characteristics: IGFBP-3 binding” value in the series with IGFBP-3 was “Loss of IGFBP-3 binding”.
With “HN-L12A: HN mutant, Leu12 to Ala (MAPRGFSCLLLATSEIDLPVKRRA; UniProt Q8IVG9 1-24, looked up, variant L12A)”, the “Cytoprotective Action” value with cells was “HN antagonist, forms inactive”.
Regarding “HN-S7A: HN mutant, Ser7 to Ala; MAPRGFACLLLLTSEIDLPVKRRA (SEQ ID NO: 35)”, the “Cytoprotective Action” value with cells is reported as “Not effective, prevents HN self-”. Further, in the series on membrane receptor, the “Characteristics: membrane receptor binding” value is listed as “Loss of membrane receptor”.
Turning to MAPRGFSCLLLLTGEIDLPVKRRA [HNG], the cardiac fibrosis entry in the series with cardiac fibrosis [14] was “no changes of fibrosis”. In addition, the cardiomyocytes apoptosis entry in the series on cardiomyocytes [15] was “did not induce significant levels of cardiomyocytes apoptosis”. Moreover, the “cardiac parameters (heart rate, LV posterior wall thickening, fractional shortening, ejection fraction)” value in series [16] is “did not show any altered cardiac parameters”. The “expression levels of ANF mRNA” value in series [17] is on record as “did not significantly altered ANF transcripts”. The Body weight entry in series [4] is “gained weight; also recorded: increased weight”. Besides, the “body weight (BW) at the end of 10 weeks” value in series [5] (surviving mice, compared to control) is on record as “no significant adverse effect on body weight”.

The values are drawn from patent publication US10792331B2, “Methods for reducing cardiotoxicity from chemotherapy by administering humanin analog compositions” (LOS ANGELES BIOMEDICAL RESEARCH INSTITUTE AT HARBOR-UCLA …, priority 2015, dated 2020).
